# B1: IL2RA-cytokine receptor switch: IL2RA signal peptide, anti-fluorescein scFv, CD8 hinge, IL2RA transmembrane and intracellular domains; SEQ ID NO: 59 (protein)
# chain: MDSYLLMWGLLTFIMVPGCQADVVMTQTPLSLPVSLGDQASISCRSSQSLVHSNGNTYLRWYLQKPGQSPKVLIYKVSNRVSGVPDRFSGSGSGTDFTLKINRVEAEDLGVYFCSQSTHVPWTFGGGTKLEIKSSADDAKKDAAKKDDAKKDDAKKDGGVKLDETGGGLVQPGGAMKLSCVTSGFTFGHYWMNWVRQSPEKGLEWVAQFRNKPYNYETYYSDSVKGRFTISRDDSKSSVYLQMNNLRVEDTGIYYCTGASYGMEYLGQGTSVTVSTTTPAPRPPTPAPTIASQPLSLRPEACRPAAGGAVHTRGLDFACDVAVAGCVFLLISVLLLSGLTWQRRQRKSRRTI
# Columns and labels:
# [1] = system: CD8+ T cells comprising anti-fluorescein CAR; assay: Stimulation of anti-fluorescein CAR T cells by plate-bound or free FITC conjugate; IL-2, IFN-gamma and CD69 by flow cytometry; type: cell-based
# Method: T cells comprising a nucleic acid encoding anti-fluorescein CAR were stimulated on FITC-conjugated-antibody-coated normal (Normal) or high affinity (High affinity) plates or antibody-FITC solution (Free) with increasing doses of FITC (0, 0.1, 1, 10, and 100 μg/mL) in the presence or absence of CD3/CD28 co-stimulation. Expression of IL-2, IFN-gamma and CD69 in CD8^+ T cells were assessed by flow cytometry.
# CD4+ T cells = assay: Memory markers on CD4+ T cells expressing cytokine receptor switches, stimulated on FITC-conjugated-BSA-coated plate, flow cytometry; type: cell-based, human; conditions: with CD3/CD28-costimulation, up to 2 weeks, FIG. 3A
# Method: (§1) T cells comprising nucleic acids encoding cytokine receptor switches were stimulated on FITC-conjugated-BSA-coated plate (FIG. 2) with increasing dose of FITC (0, 0.1, 1, 10, 100, and 1000 μg/mL) in the presence or absence of CD3/CD28 co-stimulation for up to 2 weeks. The effector memory (CD45RA^− CCR7^−), central memory (CD45RA^−, CCR7 ^+), and activation (CD69) markers on CD4^+ and CD8^+ T cells were assessed by flow cytometry.
# CD8+ T cells = assay: Memory markers on CD8+ T cells expressing cytokine receptor switches, stimulated on FITC-conjugated-BSA-coated plate, flow cytometry; type: cell-based, human; conditions: with CD3/CD28-costimulation
# Method: as §1
molecule,measurement,setting,value
BSA-FITC: fluorescein isothiocyanate (FITC) conjugated to bovine serum albumin (BSA),stimulation of fluorescein-specific BAT-CAR-T cells,"[1]; bound on high-affinity plate, FIGS. 5A-5C",efficiently stimulated
fluorescein isothiocyanate [FITC],expression of IL-2 in CAR T cells,"[1]; FITC-dose-dependent, 0-100 μg/mL, FIG. 5A",increased
same,expression of IFN-gamma in CAR T cells,"[1]; FITC-dose-dependent, 0-100 μg/mL, FIG. 5B",increased
same,expression of CD69 in CAR T cells,"[1]; FITC-dose-dependent, 0-100 μg/mL, FIG. 5C",increased
B1,effector memory markers (CD45RA- CCR7-) on CD4+ T cells,CD4+ T cells,increased
same,"central memory markers (CD45RA-, CCR7+) on CD8+ T cells",CD8+ T cells; FIG. 3B,increased
same,effector memory markers (CD45RA- CCR7-) on CD8+ T cells,"CD8+ T cells; FITC-BSA-coated plate, up to 2 weeks, FIG. 3A",increased
